In US20180155344A1, “TRICYCLIC PIPERIDINE COMPOUNDS” (ACTELION PHARMACEUTICALS LTD, priority 2015, published 2018):

Target: T1, human TPH1 (Homo sapiens, UniProt P17752)
T1 sequence (P17752 1-444): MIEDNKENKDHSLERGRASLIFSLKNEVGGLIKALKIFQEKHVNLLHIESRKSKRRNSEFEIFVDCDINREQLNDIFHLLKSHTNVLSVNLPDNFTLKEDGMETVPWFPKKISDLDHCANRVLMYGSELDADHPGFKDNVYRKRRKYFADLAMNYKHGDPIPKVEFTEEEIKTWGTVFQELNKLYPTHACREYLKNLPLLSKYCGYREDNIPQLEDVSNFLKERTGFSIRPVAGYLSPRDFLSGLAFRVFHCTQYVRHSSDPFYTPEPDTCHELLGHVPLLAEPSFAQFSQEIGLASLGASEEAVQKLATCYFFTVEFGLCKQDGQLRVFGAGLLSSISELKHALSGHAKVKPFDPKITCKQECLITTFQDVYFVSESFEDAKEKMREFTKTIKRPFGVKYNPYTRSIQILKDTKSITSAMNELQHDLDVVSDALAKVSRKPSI
Assay: biochemical
How it was run: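 Inhibition is derived from 5-hydroxy-L-tryptophan fluorescence (540 nm emission, 300 nm excitation) after perchloric acid stop, relative to DMSO vehicle. Recombinant full-length human enzyme (40-80 nM) reacts with 40 μM tryptophan plus 100 μM methyltetrahydropterin, pH 7.6 Tris/DTT/catalase, 15° C, 60 min.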

Row | SMILES | IC50
1 | O=C(COc1ccc2ccccc2c1)N1CCc2nc3cc(C(F)(F)F)ccn3c2C1c1ccc(C(F)(F)F)cc1 (centres unmarked) [Example 3.28.1, 2-(naphthalen-2-yloxy)-1-(7-(trifluoromethyl)-1-(4-(trifluoromethyl)phenyl)-3,4-dihydroimidazo[1,2-a:5,4-c′]dipyridin-2(1H)-yl)ethan-1-one] | 154 nM
2 | COc1ccc(C2c3c(nc4cc(C(F)(F)F)ccn34)CCN2C(=O)COc2cc(F)ccc2Cl)cc1OC (centres unmarked) [Example 3.1.14] | 103 nM
3 | O=C(COc1ccc(CN2CCOCC2)cc1Cl)N1CCc2nc3cc(C(F)(F)F)ccn3c2C1c1ccc(OCC(F)(F)F)nc1 (centres unmarked) [Example 3.8.1, 2-(2-chloro-4-(morpholinomethyl)phenoxy)-1-(1-(6-(2,2,2-trifluoroethoxy)pyridin-3-yl)-7-(trifluoromethyl)-3,4-dihydroimidazo[1,2-a:5,4-c′]dipyridin-2(1H)-yl)ethan-1-one] | 86 nM
4 | O=C(COc1ccc(CN2CCOCC2)cc1Cl)N1CCc2nc3cc(C(F)(F)F)ccn3c2C1c1ccc(OC(F)(F)F)cc1 (centres unmarked) [Example 3.27.1, 2-(2-chloro-4-(morpholinomethyl)phenoxy)-1-(1-(4-(trifluoromethoxy)phenyl)-7-(trifluoromethyl)-3,4-dihydroimidazo[1,2-a:5,4-c′]dipyridin-2(1H)-yl)ethan-1-one] | 135 nM
5 | CCOc1ccc(C2c3c(nc4cc(C(F)(F)F)ccn34)CCN2C(=O)COc2ccc(CN3CCOCC3)cc2Cl)cn1 (centres unmarked) [Example 3.7.1, 2-(2-chloro-4-(morpholinomethyl)phenoxy)-1-(1-(6-ethoxypyridin-3-yl)-7-(trifluoromethyl)-3,4-dihydroimidazo[1,2-a:5,4-c′]dipyridin-2(1H)-yl)ethan-1-one] | 18 nM
6 | O=C(COc1ccc2ccccc2c1)N1CCc2nc3cc(C(F)(F)F)ccn3c2C1c1cccnc1 (centres unmarked) [Example 3.36.1, 2-(naphthalen-2-yloxy)-1-(1-(pyridin-3-yl)-7-(trifluoromethyl)-3,4-dihydroimidazo[1,2-a:5,4-c′]dipyridin-2(1H)-yl)ethan-1-one] | 208 nM
7 | CCc1cc(N2CCOCC2)ccc1OCC(=O)N1CCc2nc3cc(C(F)(F)F)ccn3c2C1c1ccc(OC)c(OC)c1 (centres unmarked) [Example 3.1.33, 1-(1-(3,4-dimethoxyphenyl)-7-(trifluoromethyl)-3,4-dihydroimidazo[1,2-a:5,4-c′]dipyridin-2(1H)-yl)-2-(2-ethyl-4-morpholinophenoxy)ethan-1-one] | 12 nM
8 | O=C(COc1ccc(CN2CCOCC2)cc1Cl)N1CCc2nc3cc(C(F)(F)F)ccn3c2C1c1ccc(Cl)nc1 (centres unmarked) [Example 3.37.1, 2-(2-chloro-4-(morpholinomethyl)phenoxy)-1-(1-(6-chloropyridin-3-yl)-7-(trifluoromethyl)-3,4-dihydroimidazo[1,2-a:5,4-c′]dipyridin-2(1H)-yl)ethan-1-one] | 50 nM
9 | O=C(COc1ccc2ccccc2c1)N1CCc2nc3cc(C(F)(F)F)ccn3c2C1c1ncc2ccccn12 (centres unmarked) [Example 3.43.2, 1-(1-(imidazo[1,5-a]pyridin-3-yl)-7-(trifluoromethyl)-3,4-dihydroimidazo[1,2-a:5,4-c′]dipyridin-2(1H)-yl)-2-(naphthalen-2-yloxy)ethan-1-one] | 209 nM
10 | COc1ccc(C2c3c(nc4cc(C(F)(F)F)ccn34)CCN2C(=O)COc2ccc3ccccc3c2)cn1 (centres unmarked) [Example 3.6.1, 1-(1-(6-methoxypyridin-3-yl)-7-(trifluoromethyl)-3,4-dihydroimidazo[1,2-a:5,4-c′]dipyridin-2(1H)-yl)-2-(naphthalen-2-yloxy)ethan-1-one] | 52 nM
11 | COc1ccc(C2c3c(nc4cc(C(F)(F)F)ccn34)CCN2C(=O)COc2cc(C(F)(F)F)ccc2Cl)cc1OC (centres unmarked) [Example 3.1.4] | 202 nM
12 | CCOc1ccc(C2c3c(nc4cc(C(F)(F)F)ccn34)CCN2C(=O)COc2ccc3ccccc3c2)cc1 (centres unmarked) [Example 3.25.1, 1-(1-(4-ethoxyphenyl)-7-(trifluoromethyl)-3,4-dihydroimidazo[1,2-a:5,4-c′]dipyridin-2(1H)-yl)-2-(naphthalen-2-yloxy)ethan-1-one] | 104 nM
13 | COc1ccc(C2c3c(nc4cc(Cl)ccn34)CCN2C(=O)COc2ccc(CN3CCOCC3)cc2Cl)cc1OC (centres unmarked) [Example 2.1.2, 1-(7-chloro-1-(3,4-dimethoxyphenyl)-3,4-dihydroimidazo[1,2-a:5,4-c′]dipyridin-2(1H)-yl)-2-(2-chloro-4-(morpholinomethyl)phenoxy)ethan-1-one] | 66 nM

The remaining lines, values ahead:

Row | IC50 | SMILES
14 | 71 nM | COC(=O)c1ccc(C2c3c(nc4ccccn34)CCN2C(=O)COc2ccc(NS(C)(=O)=O)nc2Cl)c(F)c1 (centres unmarked) [Example 1.15.1, methyl-4-(2-(2-((2-chloro-6-(methylsulfonamido)pyridin-3-yl)oxy)acetyl)-1,2,3,4-tetrahydroimidazo[1,2-a:5,4-c′]dipyridin-1-yl)-3-fluorobenzoate]
15 | 364 nM | CS(=O)(=O)Nc1ccc(OCC(=O)N2CCc3nc4ccccn4c3C2c2ccc(Cl)cc2F)c(C2CC2)n1 (centres unmarked) [Example 1.4.9, N-(5-(2-(1-(4-chloro-2-fluorophenyl)-3,4-dihydroimidazo[1,2-a:5,4-c′]dipyridin-2(1H)-yl)-2-oxoethoxy)-6-cyclopropylpyridin-2-yl)methanesulfonamide]
16 | 78 nM | CCc1nc(C)ccc1OCC(=O)N1CCc2nc3ccccn3c2C1c1ccc(Cl)cc1F (centres unmarked) [Example 1.4.6, 1-(1-(4-chloro-2-fluorophenyl)-3,4-dihydroimidazo[1,2-a:5,4-c′]dipyridin-2(1H)-yl)-2-((2-ethyl-6-methylpyridin-3-yl)oxy)ethan-1-one]
17 | 432 nM | Cc1cc(C2c3c(nc4cc(C(F)(F)F)ccn34)CCN2C(=O)COc2ccc3ccccc3c2)n(C)n1 (centres unmarked) [Example 3.40.1, 1-(1-(1,3-dimethyl-1H-pyrazol-5-yl)-7-(trifluoromethyl)-3,4-dihydroimidazo[1,2-a:5,4-c′]dipyridin-2(1H)-yl)-2-(naphthalen-2-yloxy)ethan-1-one]
18 | 17 nM | CCc1nc(C)ccc1OCC(=O)N1CCc2nc3cc(C(F)(F)F)ccn3c2C1c1ccc(C)cc1F (centres unmarked) [Example 3.22.4, 2-((2-ethyl-6-methylpyridin-3-yl)oxy)-1-(1-(2-fluoro-4-methylphenyl)-7-(trifluoromethyl)-3,4-dihydroimidazo[1,2-a:5,4-c′]dipyridin-2(1H)-yl)ethan-1-one]
19 | 241 nM | CCc1nc(C)ccc1OCC(=O)N1CCc2nc3ccccn3c2C1c1ccc(Cl)nc1F (centres unmarked) [Example 1.11.3, 1-(1-(6-chloro-2-fluoropyridin-3-yl)-3,4-dihydroimidazo[1,2-a:5,4-c′]dipyridin-2(1H)-yl)-2-((2-ethyl-6-methylpyridin-3-yl)oxy)ethan-1-one]
20 | 949 nM | CN(C)C(=O)c1ccc(OC(C)(C)C(=O)N2CCc3nc4ccccn4c3C2c2ccc(Cl)cc2F)c(Cl)n1 (centres unmarked) [Example 1.4.17, 6-chloro-5-((1-(1-(4-chloro-2-fluorophenyl)-3,4-dihydroimidazo[1,2-a:5,4-c′]dipyridin-2(1H)-yl)-2-methyl-1-oxopropan-2-yl)oxy)-N,N-dimethylpicolinamide]
21 | 74 nM | CS(=O)(=O)Nc1ccc(OCC(=O)N2CCc3nc4cc(F)ccn4c3C2c2ccc(Cl)cc2F)c(Cl)n1 (centres unmarked) [Example 14.1.1, N-(6-chloro-5-(2-(1-(4-chloro-2-fluorophenyl)-7-fluoro-3,4-dihydroimidazo[1,2-a:5,4-c′]dipyridin-2(1H)-yl)-2-oxoethoxy)pyridin-2-yl)methanesulfonamide]
22 | 14 nM | CN(CC(F)(F)F)c1ccc(OCC(=O)N2CCc3nc4ccccn4c3C2c2ccc(Cl)cc2F)c(Cl)n1 (centres unmarked) [Example 1.4.11, 1-(1-(4-chloro-2-fluorophenyl)-3,4-dihydroimidazo[1,2-a:5,4-c′]dipyridin-2(1H)-yl)-2-((2-chloro-6-(methyl(2,2,2-trifluoroethyl)amino)pyridin-3-yl)oxy)ethan-1-one]
23 | 56 nM | O=C(COc1ccc(N2CCOCC2)nc1Cl)N1CCc2nc3ncccn3c2C1c1ccc(C2CC2)cc1F (centres unmarked) [Example 18.1.1, 2-((2-chloro-6-morpholinopyridin-3-yl)oxy)-1-(6-(4-cyclopropyl-2-fluorophenyl)-8,9-dihydropyrido[4′,3′:4,5]imidazo[1,2-a]pyrimidin-7(6H)-yl)ethan-1-one]
24 | 82 nM | O=C(COc1ccc2ccccc2c1)N1CCc2nc3cc(C(F)(F)F)ccn3c2C1c1cccnc1F (centres unmarked) [Example 3.2.2, 1-(1-(2-fluoropyridin-3-yl)-7-(trifluoromethyl)-3,4-dihydroimidazo[1,2-a:5,4-c′]dipyridin-2(1H)-yl)-2-(naphthalen-2-yloxy)ethan-1-one]
25 | 98 nM | CS(=O)(=O)Nc1ccc(OCC(=O)N2CCc3nc4ccccn4c3C2c2ccc(C#N)cc2F)c(Cl)n1 (centres unmarked) [Example 1.20.1, N-(6-chloro-5-(2-(1-(4-cyano-2-fluorophenyl)-3,4-dihydroimidazo[1,2-a:5,4-c′]dipyridin-2(1H)-yl)-2-oxoethoxy)pyridin-2-yl)methanesulfonamide]
26 | 180 nM | COc1ccc(C2c3c(nc4ccccn34)CCN2C(=O)COc2ccc(C)cc2C)cc1OC (centres unmarked) [Example 1.1.2, 1-(1-(3,4-dimethoxyphenyl)-3,4-dihydroimidazo[1,2-a:5,4-c′]dipyridin-2(1H)-yl)-2-(2,4-dimethylphenoxy)ethan-1-one]
